In ChEMBL document CHEMBL5390269, “Synthesis, anti-inflammatory activity, and conformational relationship studies of chromone derivatives incorporating amide groups” (Bioorg Med Chem Lett, 2023):

Legend:
RAW264.7 = assay: Anti-inflammatory activity in mouse RAW264.7 cells assessed as inhibition of LPS-stimulated NO production; type: functional, cell-based
Interleukin-5 = target: T1, Interleukin-5 (Homo sapiens, UniProt P05113); assay: Inhibition of IL-5 (unknown origin)
T1 sequence (P05113 whole entry): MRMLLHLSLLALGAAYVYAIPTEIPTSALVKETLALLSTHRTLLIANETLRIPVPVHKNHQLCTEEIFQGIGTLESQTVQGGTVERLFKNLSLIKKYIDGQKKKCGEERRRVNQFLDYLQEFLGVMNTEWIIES

[1] = target: T2, Prostaglandin G/H synthase 2 (Homo sapiens, UniProt P35354); assay: Inhibition of COX-2 (unknown origin)
T2 sequence (P35354 whole entry): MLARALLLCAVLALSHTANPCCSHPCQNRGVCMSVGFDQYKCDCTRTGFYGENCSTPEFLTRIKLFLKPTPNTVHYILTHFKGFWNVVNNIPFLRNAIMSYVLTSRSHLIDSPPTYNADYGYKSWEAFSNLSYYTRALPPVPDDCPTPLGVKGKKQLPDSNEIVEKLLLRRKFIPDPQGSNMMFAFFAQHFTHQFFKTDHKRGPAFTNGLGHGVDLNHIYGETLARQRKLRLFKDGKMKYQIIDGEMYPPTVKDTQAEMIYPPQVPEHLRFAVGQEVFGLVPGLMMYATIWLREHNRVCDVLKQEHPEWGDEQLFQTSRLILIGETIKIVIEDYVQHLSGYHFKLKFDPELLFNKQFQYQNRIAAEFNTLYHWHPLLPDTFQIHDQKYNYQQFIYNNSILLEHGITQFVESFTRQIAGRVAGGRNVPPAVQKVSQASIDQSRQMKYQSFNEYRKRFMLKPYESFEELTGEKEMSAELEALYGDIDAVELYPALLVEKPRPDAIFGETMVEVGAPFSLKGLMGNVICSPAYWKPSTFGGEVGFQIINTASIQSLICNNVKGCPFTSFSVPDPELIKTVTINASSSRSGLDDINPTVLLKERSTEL

[2] = Cytotoxicity against mouse RAW264.7 cells assessed as cell growth inhibition by CCK-8 colorimetric assay; type: toxicity, cell-based

Row | SMILES | EC50 (RAW264.7) | further results
1 | COc1ccc(NC(=O)c2cc(=O)c3ccccc3o2)cc1 | 42.1 µM | –
2 | O=C(Nc1ccc(C(F)(F)F)cc1)c1cc(=O)c2ccccc2o1 | > 1000 µM | –
3 | O=c1c(CCC(O)c2ccc(O)cc2)coc2cccc(OCC3CCCCC3)c12 (stereo unspecified) | – | IC50 (Interleukin-5): 4 µM
4 | O=C1Nc2ccccc2/C1=C/c1coc2ccccc2c1=O | – | IC50 [1]: 0.02 µM
5 | Cc1ccc(NC(=O)c2cc(=O)c3ccccc3o2)cc1C | 31.7 µM | –
6 | Cc1ccc(Cl)cc1NC(=O)c1cc(=O)c2ccccc2o1 | 45.3 µM | –
7 | Cc1ccc(NC(=O)c2cc(=O)c3ccc(Br)cc3o2)cc1C | 821 µM | –
8 | COc1ccc(NC(=O)c2cc(=O)c3ccc(Br)cc3o2)cc1 | 174 µM | –
9 | COc1cc(OC)c2c(=O)cc(C(=O)Nc3ccc(C(F)(F)F)cc3)oc2c1 | 31.7 µM | –
10 | O=C(Nc1ccc(Br)cc1)c1cc(=O)c2ccccc2o1 | 41 µM | IC50 [2]: 24.3 µM
11 | COc1ccc2c(=O)cc(C(=O)Nc3ccccc3C)oc2c1 | 5.33 µM | IC50 [2]: 813 µM
12 | COc1cc(OC)c2c(=O)cc(C(=O)Nc3cc(Cl)ccc3C)oc2c1 | 18.7 µM | –
13 | COc1ccc2c(=O)cc(C(=O)Nc3ccc(Cl)c(C(F)(F)F)c3)oc2c1 | 86.5 µM | –
14 | CCOc1ccc(NC(=O)c2cc(=O)c3ccccc3o2)cc1 | > 1000 µM | –
15 | Cc1ccc2oc(C(=O)Nc3ccc(Cl)c(Cl)c3)cc(=O)c2c1 | 40.3 µM | –
16 | Cc1ccc2oc(C(=O)Nc3ccc(F)c(F)c3)cc(=O)c2c1 | 41 µM | –
17 | COc1cc(OC)c2c(=O)cc(C(=O)Nc3ccc(Cl)c(Cl)c3)oc2c1 | 32.3 µM | –
18 | O=C(Nc1ccc(F)c(F)c1)c1cc(=O)c2ccccc2o1 | 91.8 µM | –
19 | COc1ccc2c(=O)cc(C(=O)Nc3ccc(Cl)c(F)c3)oc2c1 | 11.1 µM | –
20 | COc1cccc2oc(C(=O)Nc3cc(Cl)ccc3C)cc(=O)c12 | – | IC50 [2]: 48 µM

Row | SMILES | EC50 (RAW264.7) | further results
21 | COc1cccc2oc(C(=O)Nc3ccc(Br)cc3)cc(=O)c12 | 378 µM | –
22 | COc1ccc2c(=O)cc(C(=O)Nc3ccc(C)c(Cl)c3)oc2c1 | 45.2 µM | –
23 | COc1ccc2c(=O)cc(C(=O)Nc3ccc(Br)cc3)oc2c1 | 89.5 µM | –
24 | COc1cccc2oc(C(=O)Nc3ccc(C(F)(F)F)cc3)cc(=O)c12 | 175 µM | –
25 | Cc1ccc2oc(C(=O)Nc3cc(Cl)ccc3C)cc(=O)c2c1 | 40.5 µM | IC50 [2]: 38.4 µM
26 | Cc1ccc(NC(=O)c2cc(=O)c3ccc(Br)cc3o2)cc1Cl | 37.9 µM | –
27 | COc1cccc2oc(C(=O)Nc3ccc(Cl)c(C(F)(F)F)c3)cc(=O)c12 | 448 µM | –
28 | COc1cccc2oc(C(=O)Nc3ccc(Cl)c(F)c3)cc(=O)c12 | 83.7 µM | –
29 | COc1ccc(NC(=O)c2cc(=O)c3c(OC)cc(OC)cc3o2)cc1 | 21.3 µM | –
30 | COc1ccc(NC(=O)c2cc(=O)c3c(OC)cccc3o2)cc1 | 191 µM | –
31 | O=C(Nc1ccc(F)c(F)c1)c1cc(=O)c2ccc(Br)cc2o1 | 138 µM | –
32 | COc1cccc2oc(C(=O)Nc3ccc(F)c(F)c3)cc(=O)c12 | 208 µM | –
33 | Cc1ccc2oc(C(=O)Nc3ccc(C)c(Cl)c3)cc(=O)c2c1 | 80 µM | –
34 | COc1cc(OC)c2c(=O)cc(C(=O)Nc3ccc(C)c(Cl)c3)oc2c1 | 115 µM | IC50 [2]: 48 µM
35 | Cc1ccc(NC(=O)c2cc(=O)c3ccccc3o2)cc1Cl | 30.1 µM | –
36 | O=C(Nc1ccc(Br)cc1)c1cc(=O)c2ccc(Br)cc2o1 | 50 µM | –
37 | COc1ccc2c(=O)cc(C(=O)Nc3ccc(Cl)c(Cl)c3)oc2c1 | 82 µM | –
38 | Cc1ccc2oc(C(=O)Nc3ccc(Cl)c(C(F)(F)F)c3)cc(=O)c2c1 | 40.7 µM | –
39 | O=C(Nc1ccc(C(F)(F)F)cc1)c1cc(=O)c2ccc(Br)cc2o1 | 167 µM | IC50 [2]: 324 µM
40 | CC(C)Cc1ccc(C(C)C(=O)O)cc1 (stereo unspecified) [IBUPROFEN] | 26.7 µM | IC50 [2]: > 1000 µM
